Data published in patent publication US11000033B2, “Ketone or oxime compound, and herbicide” (NISSAN CHEMICAL CORPORATION, priority 2014, dated 2021).

Legend:
Scirpus juncoides = test: Test Example 1: herbicidal activity, application before weed generation in submerged conditions (symbol B); assay type: in vivo; details: application herbicide amount 320 g/ha
Summary of the method: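 Compound emulsion was diluted to a set herbicide amount and applied to the water surface on the sowing day, into submerged (4 cm) alluvial-soil pots sown with mixed weed seeds and transplanted 2.5-leaf rice. Pots were held in a 25–30 °C greenhouse, and weeds were scored 0–5 by herbicidal ratio after 3 weeks.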

Lolium multiflorum Lam. = test: Test Example 5: herbicidal effect by foliage application, plastic box (symbol K); assay type: in vivo; details: 320 g/ha, 3 weeks after application
Summary of the method: (§1)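 Effect is rated 3 weeks after a foliar spray of water-diluted emulsion concentrate at a predetermined herbicide amount. Plants had grown 14 days in a 25° C. to 30° C. greenhouse from seed in sterilized diluvial soil.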

Amaranthus retroflexus = test: Test Example 5: herbicidal effect by foliage application, plastic box (symbol N); assay type: in vivo; details: 320 g/ha, 3 weeks after application
Summary of the method: as §1

| SMILES | Herbicidal effect grade, B: Scirpus juncoides (Scirpus juncoides) | K: Lolium multiflorum Lam., herbicidal effect grade (Lolium multiflorum Lam.) | N: Amaranthus retroflexus, herbicidal effect grade (Amaranthus retroflexus) | melting point |
| --- | --- | --- | --- | --- |
| CCc1cc(C)cc(C)c1C1=C(O)CC(CC(C)=NOC)C1=O (stereo not drawn) [6-007] | 5 (Herbicidal ratio of 90% or more (almost completely withered)) | 5 (Herbicidal ratio of 90% or more (almost completely withered)) | 0 (Herbicidal ratio of 5% or lower (almost no effect)) | 122 to 125 °C |
| CON=C(C)CC1CC(O)=C(c2c(C)cc(-c3ccccc3)cc2C)C1=O (stereo not drawn) [6-015] | 5 (Herbicidal ratio of 90% or more (almost completely withered)) | 5 (Herbicidal ratio of 90% or more (almost completely withered)) | 2 (Herbicidal ratio of 20% or higher and lower than 40%) | 167 to 169 °C |
| CON=C(C)CC1CC(O)=C(c2c(C)cc(OCC(F)(F)F)cc2C)C1=O (stereo not drawn) [6-049] | 5 (Herbicidal ratio of 90% or more (almost completely withered)) | 5 (Herbicidal ratio of 90% or more (almost completely withered)) | 4 (Herbicidal ratio of 70% or higher and lower than 90%) | 165 to 172 °C |
